Results published in publication PMC6946680, “Modulation of brain cation-Cl^− cotransport via the SPAK kinase inhibitor ZT-1a” (Nature Communications, 2020).
Values joined by “and” are separate entries in the source; they are usually repeats but may differ in a detail not shown here. Equal entries are not always repeated.

Columns and labels:
NKCC1 pThr203/207/212 [1] = test: Pharmacodynamic study, NKCC1 phosphorylation in kidney of naive mice; format: in vivo, mouse; details: Fig S8b (kidney); 50 mg/kg
Description: (§1) To define ZT-1a efficacy in naive mice in vivo, we examined phosphorylation of SPAK, NKCC1, and NCC in kidney, and phosphorylation of SPAK, NKCC1, and KCC3 in brain, after intraperitoneal (i.p.) administration of either ZT-1a (10, 30, 50, and 100 mg/kg) or Closantel (50 mg/kg as a reference). […]
(§2) 5. Pharmacodynamic (PD) study
(§3) Male C57BL/6j wild-type mice (6 weeks old, Charles River Laboratories Edinburgh UK) were treated with ZT-1a (in DMSO, Sigma) by subcutaneous injection at doses of 0, 3, 10, 30, 50 and 100 mg/kg. 50 mg/kg Closantel was administered as a comparative control. Vehicle control mice were treated with an equal volume of DMSO solution. One hour after administration, mice were sacrificed by cervical dislocation, and kidney and brain tissues were rapidly dissected and snap-frozen in liquid nitrogen. Age- […]
(§4) free conditions at the University of Dundee (UK) as described in our recent study1. Animal experiments and breeding were approved by the University of Dundee ethical committee and performed under a […]
(§5) Policy on the Care, Welfare and Treatment of Animals, and regulations set by the University of Dundee and the U.K. Home Office. […]
(§6) Brain and kidney tissues were collected at 60 min post injection, and proteins subjected to immunoblot were probed with antibodies specific for phosphorylated forms of SPAK,

C57BL/6J mice = test: Kaplan-Meier survival of naive and ischemic stroke mice at 25 mg/kg; format: in vivo, mouse; details: for Days elapsed: Fig S12, single mice
Description: We compared the neuroprotective efficacy of Closantel with that of the pan-WNK-kinase inhibitor WNK463. […] Moreover, toxicity of Closantel and ZT-1a at 25 mg/kg in naive and ischemic stroke mice was reflected in Kaplan–Meier survival curves (Supplementary Fig. 12).
Supplemental Fig. 12 Kaplan-Meier survival curve of naïve and ischemic stroke mice treated with […]
Normal naïve C57BL/6J mice, or mice after tMCAO randomly received Closantel or ZT-1a treatment […]
was monitored for 0-7 days post-treatment. No mortality was detected in the naïve mice treated with Closantel or ZT-1a. However, all ischemic stroke mice treated with Closantel died within 2 days, with a […]
median survival of 1 day. […]
days). n = 3 per group (naïve+Closantel or naive+ZT-1a), n = 6 per group (tMCAO+vehicle or tMCAO+Closantel or tMCAO+ZT-1a), *p < 0.05, Log-rank test.

[2] = Immunoblot of KCC site 1 phosphorylation (KCC3 Thr991) in HEK-293 cells transfected with FLAG-KCC3; format: cell-based, human
SPAK phosphorylation = test: Pharmacodynamic study, SPAK phosphorylation in kidney of naive mice; format: in vivo, mouse; details: Fig S8b (kidney); 50 mg/kg
Description: as §1, §2, §3, §4, §5, §6

KCC3 pThr1048 = test: Pharmacodynamic study, KCC3 phosphorylation in brain of naive mice; format: in vivo, mouse
Description: as §1, §2, §3, §4, §5, §6

NKCC1 pThr203/207/212 [3] = test: Immunoblot of NKCC1 p-Thr203/Thr207/Thr212 in HEK-293 cells; format: cell-based, human; details: single replicates
SPAK pSer373 = test: Immunoblot of SPAK/OSR1 p-Ser373/Ser325 in HEK-293 cells; format: cell-based, human; details: single replicates
[4] = molecular target: human SPAK 452-547(C-term) with WNK peptide (RFQV) (Homo sapiens, UniProt Q9UEW8); test: Fluorescence polarization of SPAK–WNK peptide interaction; format: binding; details: SPAK FL, Fig S5b

For `Cc1cc(C(C#N)c2ccc(Cl)cc2)c(Cl)cc1NC(=O)c1cc(I)cc(I)c1O` (centres unmarked) [Closantel, reference compound], the “pTh203.207.212 / NKCC1” value (NKCC1 pThr203/207/212 [1]) was 0.43 and 0.52 and 0.41 and 0.37, the “mortality of ischemic stroke mice” value (C57BL/6J mice; 25 mg/kg) was 100% and the “mortality in naive mice” value (C57BL/6J mice; 25 mg/kg i.p., 0-7 days, n = 3) was “No mortality”. For the same molecule, the “time by which all ischemic stroke mice died” value (C57BL/6J mice; 25 mg/kg i.p., tMCAO) was at most 2 days, the “median survival of ischemic stroke mice” value (C57BL/6J mice; 25 mg/kg i.p., tMCAO, n = 6) was 1 days and the Days elapsed (C57BL/6J mice; MCAO mice) was 1 days and 2 days. The Days elapsed (C57BL/6J mice; mice without MCAO) was 7 days, the “toxicity in mice at higher doses” value (C57BL/6J mice; ~25 mg/kg) was “toxicity” and the “T906/KCC2 band intensity ratio” value ([2]; Hypotonic low Cl, 1 uM, single replicates) was 0.202 and 0.217 and 0.223 and 0.249. For the same molecule, the “T906/KCC2 band intensity ratio” value ([2]; Hypotonic low Cl, 3 uM, single replicates) was 0.23 and 0.214 and 0.223 and 0.251, the “T906/KCC2 band intensity ratio” value ([2]; Hypotonic low Cl, 10 uM, single replicates) was 0.186 and 0.19 and 0.176 and 0.21 and the “T906/KCC2 band intensity ratio” value ([2]; Isotonic control, 1 uM, single replicates (Fig 2 source data)) was 0.244 and 0.296 and 0.316 and 0.327. For the same molecule, the “T906/KCC2 band intensity ratio” value ([2]; Isotonic control, 3 uM, single replicates) was 0.256 and 0.224 and 0.253 and 0.285, the “T906/KCC2 band intensity ratio” value ([2]; Isotonic control, 10 uM, single replicates) was 0.18 and 0.181 and 0.194 and 0.22 and the “pSer373 / SPAK” value (SPAK phosphorylation) was 0.54 and 0.38 and 0.32 and 0.46. For the same molecule, the “KCC3 phosphorylation (pThr1048) in naive brains” value (KCC3 pThr1048; 60 min after administration) was “neither drug had reduced”, the “pTh1048 / KCC3” value (KCC3 pThr1048; Fig S8a (brain), 50 mg/kg) was 0.84 and 0.87 and 0.95 and 0.91 and the “pNKCC1/NKCC1 band intensity ratio” value (NKCC1 pThr203/207/212 [3]; Hypotonic low Cl, 1 uM) was 1.007 and 1.145 and 1.103 and 1.12. For the same molecule, the “pNKCC1/NKCC1 band intensity ratio” value (NKCC1 pThr203/207/212 [3]; Hypotonic low Cl, 3 uM) was 0.767 and 0.631 and 0.6563 and 0.721, the “pNKCC1/NKCC1 band intensity ratio” value (NKCC1 pThr203/207/212 [3]; Hypotonic low Cl, 10 uM) was 0.313 and 0.28 and 0.243 and 0.21 and the “pNKCC1/NKCC1 band intensity ratio” value (NKCC1 pThr203/207/212 [3]; Isotonic control, 1 uM) was 0.204 and 0.171 and 0.186 and 0.195. The “pNKCC1/NKCC1 band intensity ratio” value (NKCC1 pThr203/207/212 [3]; Isotonic control, 3 uM) was 0.054 and 0.067 and 0.053 and 0.062, the “pNKCC1/NKCC1 band intensity ratio” value (NKCC1 pThr203/207/212 [3]; Isotonic control, 10 uM) was 0.03 and 0.047 and 0.044 and 0.038 and the “pSPAK/SPAK band intensity ratio” value (SPAK pSer373; Hypotonic low Cl, 1 uM) was 0.156 and 0.123 and 0.1673 and 0.133. The “pSPAK/SPAK band intensity ratio” value (SPAK pSer373; Hypotonic low Cl, 3 uM) was 0.102 and 0.11 and 0.1063 and 0.108, the “pSPAK/SPAK band intensity ratio” value (SPAK pSer373; Hypotonic low Cl, 10 uM) was 0.032 and 0.058 and 0.043 and 0.041 and the “pSPAK/SPAK band intensity ratio” value (SPAK pSer373; Isotonic control, 1 uM) was 0.118 and 0.131 and 0.126 and 0.122. The “pSPAK/SPAK band intensity ratio” value (SPAK pSer373; Isotonic control, 3 uM) was 0.056 and 0.061 and 0.054 and 0.063, the “pSPAK/SPAK band intensity ratio” value (SPAK pSer373; Isotonic control, 10 uM) was 0.039 and 0.027 and 0.033 and 0.031 and the “Inhibitor vs SPAK FL (fluorescence polarization signal)” value (“Inhibitor vs SPAK FL” for short) ([4]; Inhibitor 1e-5 μM) was 127.9 and 118 and 130. For the same molecule, the “Inhibitor vs SPAK FL” value ([4]; Inhibitor 0.0001 μM) was 125.3 and 112 and 127, the “Inhibitor vs SPAK FL” value ([4]; Inhibitor 0.001 μM) was 121.9 and 115.3 and 123 and the “Inhibitor vs SPAK FL” value ([4]; Inhibitor 0.003 μM) was 123.1 and 116.4 and 120.4. For the same molecule, the “Inhibitor vs SPAK FL” value ([4]; Inhibitor 0.01 μM) was 124.7 and 111.9 and 117.8, the “Inhibitor vs SPAK FL” value ([4]; Inhibitor 0.03 μM) was 123.5 and 114.7 and 122.6 and the “Inhibitor vs SPAK FL” value ([4]; Inhibitor 0.1 μM) was 126.5 and 109.5 and 116.8. For the same molecule, the “Inhibitor vs SPAK FL” value ([4]; Inhibitor 0.3 μM) was 114.7 and 105.4 and 109.5, the “Inhibitor vs SPAK FL” value ([4]; Inhibitor 1 μM) was 106.2 and 99.8 and 105.3 and the “Inhibitor vs SPAK FL” value ([4]; Inhibitor 3 μM) was 104.5 and 98.4 and 100.5. The “Inhibitor vs SPAK FL” value ([4]; Inhibitor 10 μM) was 103.1 and 97.1 and 101.4 and the “Inhibitor vs SPAK FL” value ([4]; Inhibitor 100 μM) was 104.1 and 98.1 and 100.6.
